Results reported in US20210259246A1, “SUBSTITUTED 4-HETEROARYLOXYPYRIDINES AND SALTS THEREOF AND THEIR USE AS HERBICIDAL AGENTS” (BAYER AKTIENGESELLSCHAFT, priority 2018, published 2021).

Experiments:
Format in all cases: in vivo
[1] = tested on: Lolium rigidum (LOLRI); test: Herbicidal pre-emergence action; details: 1280 g/ha; scored visually after about 3 weeks vs untreated controls; 100% = plants have died, 0% = like control plants
Source text: (§1) Seeds of mono- and dicotyledonous weed plants were placed in plastic pots in sandy loam soil (doubly sown with in each case one species of mono- or dicotyledonous weed plants per pot) and covered with soil. The compounds of the invention, formulated in the form of wettable powders (WP) or as emulsion concentrates (EC), were then applied onto the surface of the covering soil as aqueous suspension or emulsion with addition of 0.5% additive at a water application rate of 600 liters per hectare (converted). After the treatment, the pots were placed in a greenhouse and kept under good growth conditions for the test plants. After about 3 weeks, the effect of the preparations was scored visually in comparison with untreated controls as percentages. For example, 100% activity=the plants have died, 0% activity=like control plants. Tables C1 to C8 below show the effects of selected compounds of the general formula (I) according to Table 1 on various harmful plants and an application rate corresponding to 1280 g/ha, which were obtained by the experimental procedure mentioned above.

[2] = tested on: Echinochloa crus-galli (ECHCG); test: Herbicidal pre-emergence action; details: 1280 g/ha; scored visually after about 3 weeks vs untreated controls; 100% = plants have died, 0% = like control plants
Source text: as §1

[3] = tested on: Matricaria inodora (MATIN); test: Herbicidal pre-emergence action; details: 1280 g/ha; scored visually after about 3 weeks vs untreated controls; 100% = plants have died, 0% = like control plants
Source text: as §1

[4] = tested on: Abutilon theophrasti (ABUTH); test: Herbicidal pre-emergence action; details: 1280 g/ha; scored visually after about 3 weeks vs untreated controls; 100% = plants have died, 0% = like control plants
Source text: as §1

[5] = tested on: Stellaria media (STEME); test: Herbicidal pre-emergence action; details: 1280 g/ha; scored visually after about 3 weeks vs untreated controls; 100% = plants have died, 0% = like control plants
Source text: as §1

[6] = tested on: Amaranthus retroflexus (AMARE); test: Herbicidal pre-emergence action; details: 1280 g/ha; scored visually after about 3 weeks vs untreated controls; 100% = plants have died, 0% = like control plants
Source text: as §1

[7] = tested on: Poa annua (POAAN); test: Herbicidal pre-emergence action; details: 1280 g/ha; scored visually after about 3 weeks vs untreated controls; 100% = plants have died, 0% = like control plants
Source text: as §1

[8] = tested on: Setaria viridis (SETVI); test: Herbicidal pre-emergence action; details: 1280 g/ha; scored visually after about 3 weeks vs untreated controls; 100% = plants have died, 0% = like control plants
Source text: as §1

[9] = tested on: Echinochloa crus-galli (ECHCG); test: Herbicidal post-emergence action; details: 1280 g/ha; rated visually about 3 weeks after treatment vs untreated controls; 100% = plants have died, 0% = like control plants
Method: (§2) Seeds of mono- and dicotyledonous weed plants were placed in plastic pots in sandy loam soil (doubly sown with in each case one species of mono- or dicotyledonous weed plants per pot), covered with soil and cultivated in a greenhouse under controlled growth conditions. 2 to 3 weeks after sowing, the test plants were treated at the one-leaf stage. The compounds of the invention, formulated in the form of wettable powders (WP) or as emulsion concentrates (EC), were applied onto the green parts of the plants as aqueous suspension or emulsion with addition of 0.5% additive at a water application rate of 600 liters per hectare (converted). After the test plants had been kept in the greenhouse under optimum growth conditions for about 3 weeks, the activity of the preparations was rated visually in comparison to untreated controls. For example, 100% activity=the plants have died, 0% activity=like control plants. Tables B1 to B6 below show the effects of selected compounds of the general formula (I) according to Table 1 on various harmful plants and an application rate corresponding to 1280 g/ha, which were obtained by the experimental procedure mentioned above.

[10] = tested on: Abutilon theophrasti (ABUTH); test: Herbicidal post-emergence action; details: 1280 g/ha; rated visually about 3 weeks after treatment vs untreated controls; 100% = plants have died, 0% = like control plants
Method: as §2

[11] = tested on: Stellaria media (STEME); test: Herbicidal post-emergence action; details: 1280 g/ha; rated visually about 3 weeks after treatment vs untreated controls; 100% = plants have died, 0% = like control plants
Method: as §2

[12] = tested on: Amaranthus retroflexus (AMARE); test: Herbicidal post-emergence action; details: 1280 g/ha; rated visually about 3 weeks after treatment vs untreated controls; 100% = plants have died, 0% = like control plants
Method: as §2

[13] = tested on: Poa annua (POAAN); test: Herbicidal post-emergence action; details: 1280 g/ha; rated visually about 3 weeks after treatment vs untreated controls; 100% = plants have died, 0% = like control plants
Method: as §2

[14] = tested on: Setaria viridis (SETVI); test: Herbicidal post-emergence action; details: 1280 g/ha; rated visually about 3 weeks after treatment vs untreated controls; 100% = plants have died, 0% = like control plants
Method: as §2

[15] = tested on: Agrostis tenuis (AGSTE); test: Herbicidal early post-emergence action; details: 1900 g/ha; scored visually 9 to 12 days after treatment vs untreated controls; 100% = plants have died, 0% = like control plants
Method: (§3) Seeds of monocotyledonous or dicotyledonous weed plants were placed in 96-well microtiter plates in quartz sand and grown in a climatized chamber under controlled growth conditions. 5 to 7 days after sowing, the test plants were treated at the cotyledon stage. The compounds according to the invention, formulated in the form of emulsion concentrates (EC), were applied with a water application rate of the equivalent of 2200 liters per hectare. After the test plants had been left to stand in the climatized chamber for 9 to 12 days under optimum growth conditions, the effect of the preparations was scored visually in comparison to untreated controls. For example, 100% activity=the plants have died, 0% activity=like control plants. Tables A1 to A6 below show the effects of selected compounds of the general formula (I) according to Table 1 on various harmful plants and an application rate corresponding to 1900 g/ha, which were obtained by the experimental procedure mentioned above.

[16] = tested on: Lolium perenne (LOLPE); test: Herbicidal early post-emergence action; details: 1900 g/ha; scored visually 9 to 12 days after treatment vs untreated controls; 100% = plants have died, 0% = like control plants
Method: as §3

[17] = tested on: Veronica persica (VERPE); test: Herbicidal early post-emergence action; details: 1900 g/ha; scored visually 9 to 12 days after treatment vs untreated controls; 100% = plants have died, 0% = like control plants
Method: as §3

[18] = tested on: Diplotaxis muralis (DIPTE); test: Herbicidal early post-emergence action; details: 1900 g/ha; scored visually 9 to 12 days after treatment vs untreated controls; 100% = plants have died, 0% = like control plants
Method: as §3

[19] = tested on: Poa annua (POAAN); test: Herbicidal early post-emergence action; details: 1900 g/ha; scored visually 9 to 12 days after treatment vs untreated controls; 100% = plants have died, 0% = like control plants
Method: as §3

[20] = tested on: Setaria viridis (SETVI); test: Herbicidal early post-emergence action; details: 1900 g/ha; scored visually 9 to 12 days after treatment vs untreated controls; 100% = plants have died, 0% = like control plants
Method: as §3

Cc1cc(Oc2ncc(Cl)cn2)c(Sc2ccc(F)cc2)c(C)n1 [Example 1-26, 2,6-Dimethyl-3-(4-fluorophenylthio)-4-(5-chloropyrimidin-2-yloxy)pyridine]
Pre-emergence action against Lolium rigidum (LOLRI) [1]: 100% | Pre-emergence action against Echinochloa crus-galli (ECHCG) [2]: 100% | Pre-emergence action against Matricaria inodora (MATIN) [3]: 100% | Pre-emergence action against Abutilon theophrasti (ABUTH) [4]: 100% | Pre-emergence action against Stellaria media (STEME) [5]: 100% | Pre-emergence action against Amaranthus retroflexus (AMARE) [6]: 100% | Pre-emergence action against Poa annua (POAAN) [7]: 100% | Pre-emergence action against Setaria viridis (SETVI) [8]: 100% | Post-emergence action against Echinochloa crus-galli (ECHCG) [9]: 100% | Post-emergence action against Abutilon theophrasti (ABUTH) [10]: 100% | Post-emergence action against Stellaria media (STEME) [11]: 100% | Post-emergence action against Amaranthus retroflexus (AMARE) [12]: 100% | Post-emergence action against Poa annua (POAAN) [13]: 100% | Post-emergence action against Setaria viridis (SETVI) [14]: 90%

Cc1cc(Oc2ncc(Cl)cn2)c(Sc2ccc(F)c(F)c2)c(C)n1 [Example 1-27]
Pre-emergence action against Lolium rigidum (LOLRI) [1]: 100% | Pre-emergence action against Echinochloa crus-galli (ECHCG) [2]: 100% | Pre-emergence action against Matricaria inodora (MATIN) [3]: 100% | Pre-emergence action against Abutilon theophrasti (ABUTH) [4]: 90% | Pre-emergence action against Stellaria media (STEME) [5]: 100% | Pre-emergence action against Amaranthus retroflexus (AMARE) [6]: 100% | Pre-emergence action against Poa annua (POAAN) [7]: 100% | Pre-emergence action against Setaria viridis (SETVI) [8]: 100% | Post-emergence action against Echinochloa crus-galli (ECHCG) [9]: 100% | Post-emergence action against Abutilon theophrasti (ABUTH) [10]: 90% | Post-emergence action against Stellaria media (STEME) [11]: 100% | Post-emergence action against Amaranthus retroflexus (AMARE) [12]: 100%

Cc1cc(Oc2ncc(Cl)cn2)c(Sc2cccc(C(F)(F)F)c2)c(C)n1 [Example 1-28]
Pre-emergence action against Matricaria inodora (MATIN) [3]: 90% | Pre-emergence action against Stellaria media (STEME) [5]: 100% | Pre-emergence action against Amaranthus retroflexus (AMARE) [6]: 90% | Pre-emergence action against Poa annua (POAAN) [7]: 90% | Post-emergence action against Stellaria media (STEME) [11]: 100% | Post-emergence action against Amaranthus retroflexus (AMARE) [12]: 90% | Post-emergence action against Poa annua (POAAN) [13]: 100%

Cc1cc(Oc2ncc(Cl)cn2)c(Sc2ccc(C#N)cc2)c(C)n1 [Example 1-30]
Pre-emergence action against Lolium rigidum (LOLRI) [1]: 90% | Pre-emergence action against Echinochloa crus-galli (ECHCG) [2]: 100% | Pre-emergence action against Matricaria inodora (MATIN) [3]: 90% | Pre-emergence action against Abutilon theophrasti (ABUTH) [4]: 90% | Pre-emergence action against Stellaria media (STEME) [5]: 100% | Pre-emergence action against Amaranthus retroflexus (AMARE) [6]: 100% | Pre-emergence action against Poa annua (POAAN) [7]: 100% | Pre-emergence action against Setaria viridis (SETVI) [8]: 90% | Post-emergence action against Echinochloa crus-galli (ECHCG) [9]: 100% | Post-emergence action against Stellaria media (STEME) [11]: 100% | Post-emergence action against Poa annua (POAAN) [13]: 100%

COC(=O)c1cc(Oc2ncc(Cl)cn2)c(Sc2ccc(F)cc2)c(C(=O)OC)n1 [Example 1-50]
Early post-emergence action against Agrostis tenuis (AGSTE) [15]: 80%

Cc1nccc(Oc2ncc(Cl)cn2)c1Sc1ccc(F)cc1 [Example 1-86]
Early post-emergence action against Lolium perenne (LOLPE) [16]: 80% | Early post-emergence action against Veronica persica (VERPE) [17]: 80% | Early post-emergence action against Agrostis tenuis (AGSTE) [15]: 100% | Early post-emergence action against Diplotaxis muralis (DIPTE) [18]: 80% | Early post-emergence action against Poa annua (POAAN) [19]: 100% | Early post-emergence action against Setaria viridis (SETVI) [20]: 80%

Cc1nccc(Oc2ncc(F)cn2)c1Oc1ncc(F)cn1 [Example 1-91]
Pre-emergence action against Matricaria inodora (MATIN) [3]: 90% | Pre-emergence action against Stellaria media (STEME) [5]: 90% | Pre-emergence action against Amaranthus retroflexus (AMARE) [6]: 100%
